Here are results for nine compounds from publication PMC5602078, “Rapid screening and identification of ACE inhibitors in snake venoms using at-line nanofractionation LC-MS” (Analytical and Bioanalytical Chemistry, 2017).

One may read the IC50 as the concentration needed to halve the response being measured. A low value points to greater potency in that assay. As a reminder, the Km is the substrate concentration at which the rate is half of its maximum.

For assay [1], the target named is T1, angiotensin-converting enzyme (ACE) from rabbit lung (Oryctolagus cuniculus, UniProt P12822).
T1 sequence (P12822 34-1310): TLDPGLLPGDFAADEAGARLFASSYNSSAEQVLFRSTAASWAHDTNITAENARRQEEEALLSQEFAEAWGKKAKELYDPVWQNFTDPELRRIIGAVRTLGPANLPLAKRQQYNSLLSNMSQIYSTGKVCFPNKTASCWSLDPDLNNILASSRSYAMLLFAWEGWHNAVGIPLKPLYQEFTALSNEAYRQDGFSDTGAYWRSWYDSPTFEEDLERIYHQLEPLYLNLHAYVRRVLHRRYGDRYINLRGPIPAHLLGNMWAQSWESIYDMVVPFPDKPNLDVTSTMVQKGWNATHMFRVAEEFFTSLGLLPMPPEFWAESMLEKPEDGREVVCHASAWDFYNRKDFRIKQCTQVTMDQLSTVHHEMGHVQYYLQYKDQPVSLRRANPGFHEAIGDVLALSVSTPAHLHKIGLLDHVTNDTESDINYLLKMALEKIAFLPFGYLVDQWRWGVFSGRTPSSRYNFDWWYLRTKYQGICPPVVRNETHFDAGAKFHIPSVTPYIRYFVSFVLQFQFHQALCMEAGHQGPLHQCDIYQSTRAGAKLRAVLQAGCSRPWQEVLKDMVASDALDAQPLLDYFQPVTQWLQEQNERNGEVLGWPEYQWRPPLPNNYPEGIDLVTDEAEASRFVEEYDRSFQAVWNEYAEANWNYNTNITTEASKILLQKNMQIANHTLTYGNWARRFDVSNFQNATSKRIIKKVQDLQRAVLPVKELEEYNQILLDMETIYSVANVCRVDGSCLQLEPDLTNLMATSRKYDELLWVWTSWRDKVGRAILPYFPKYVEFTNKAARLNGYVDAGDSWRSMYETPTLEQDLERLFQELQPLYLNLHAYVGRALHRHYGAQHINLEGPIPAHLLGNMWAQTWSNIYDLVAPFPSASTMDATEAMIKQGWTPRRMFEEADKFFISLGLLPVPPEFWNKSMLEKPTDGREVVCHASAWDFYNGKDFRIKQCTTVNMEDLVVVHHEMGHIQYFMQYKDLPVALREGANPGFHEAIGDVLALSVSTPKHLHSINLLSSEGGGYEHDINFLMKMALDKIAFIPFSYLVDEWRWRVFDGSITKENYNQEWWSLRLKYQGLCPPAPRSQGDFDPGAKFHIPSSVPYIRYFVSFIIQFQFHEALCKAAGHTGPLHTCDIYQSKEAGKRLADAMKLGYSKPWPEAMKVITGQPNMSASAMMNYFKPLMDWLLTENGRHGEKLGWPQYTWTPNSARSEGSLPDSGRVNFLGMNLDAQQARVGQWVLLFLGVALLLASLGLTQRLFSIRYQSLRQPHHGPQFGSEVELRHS
In words: ACE bioactivity assay, dose-response (concentration-response) curves of synthetic peptides. In kind it is biochemical. On the set-up: angiotensin-converting enzyme (ACE) from rabbit lung; purchased Sigma-Aldrich (Zwijndrecht, The Netherlands); host or cells: rabbit lung tissue.
Procedure: Water was purified using a Milli-Q Plus system from Millipore (Amsterdam, The Netherlands). Acetonitrile (ACN) (ULC/MS grade) and formic acid (FA) were obtained from Biosolve (Valkenswaard, The Netherlands). […] DMSO was obtained from Riedel-de Haën (Zwijndrecht, The Netherlands).
(§1) ACE was stored at −20 °C as a 1-U/mL solution in 50% glycerol/50% 0.15 M Tris-HCl pH 8.3 supplemented with 5 mM ZnCl2. […] The assay was performed in a 0.15 M Tris-HCl buffer pH 8.3 supplemented with 0.5 M NaCl. […] This solution was then added directly to the nanofractionated plates at room temperature using a Multidrop™ 384 Reagent Dispenser (Thermo Fisher Scientific, Ermelo, The Netherlands). The final volume of the assay was 75 μL/well. The readout of the assay was fluorescence measured with a Varioskan™ Flash Multimode Reader (Thermo Fisher Scientific, Ermelo, The Netherlands) at 320 nm excitation and 420 nm emission wavelength. The measurements were performed at 37 °C after 1 h and after 2 h from the start of addition of the assay solution to the plates. Between the two time points, the plates were incubated at 37 °C. The activity of ACE in the wells was expressed as the slope of the kinetic curve that resulted from the two time point measurements. The resulting slopes were normalized and plotted in a graph versus time of each nanofraction collected using the GraphPad Prism 6 software (La Jolla, CA, USA). The slopes were normalized by dividing each slope value with the median of all the values obtained in a single measurement.
The dose-response curves of all four synthetic peptides were determined and the IC50 values for each peptide were determined in the ACE bioactivity assay.
The serial dilutions of the peptides were tested in the assay using 1 mU/mL ACE enzyme and
40 µM substrate concentration.

Assay [2] concerns the target T1, angiotensin-converting enzyme (ACE) from rabbit lung. In kind it is biochemical. Further details: angiotensin-converting enzyme (ACE) from rabbit lung; purchased Sigma-Aldrich (Zwijndrecht, The Netherlands); host or cells: rabbit lung tissue. To be noted: peptide in bioactive wells after LC nanofractionation of crude venom, sequenced by nanoLC-MS/MS.
Source text: Water was purified using a Milli-Q Plus system from Millipore (Amsterdam, The Netherlands). Acetonitrile (ACN) (ULC/MS grade) and formic acid (FA) were obtained from Biosolve (Valkenswaard, The Netherlands). […] DMSO was obtained from Riedel-de Haën (Zwijndrecht, The Netherlands). Most snake venoms were obtained commercially from Kentucky Reptile Zoo (USA), Ventoxin (USA), Biotoxin (USA), Venom Supplies (Tanunda, Australia), and African Reptiles & Venoms (Johannesburg, South Africa). The Boiga irregularis and Gloydius blomhoffii venoms were kind gifts from Prof. Steve Mackessy (University of Northern Colorado, USA) and Prof. Sadaaki Iwanaga (Kyushu University, Japan), respectively. Lyophilized venoms were kept at −20 °C. Prior to analysis, snake venoms were diluted in water to an end concentration of approximately 5.0 ± 0.1 mg/mL. After analysis, the samples were kept at −80 °C for later re-analysis.
Liquid chromatography separation was performed on a Shimadzu (‘s-Hertogenbosch, The Netherlands) UPLC system controlled via the Shimadzu Lab Solutions software. Sample injection was performed with a Shimadzu SIL-30AC autosampler using a 50-μL injection volume for RPLC separation and a 20-μL injection volume for HILIC separation. A gradient separation was performed on a Waters (Milford, MA) xBridge C18 column (100 × 4.6 mm; 5 μm) with an xBridge C18 guard column (10 × 4.6 mm; 5 μm) in RPLC mode. In HILIC mode, an Atlantis™ HILIC silica column (150 × 2.1 mm; 3 μm) was used. The columns were thermostated at 37 °C in a Shimadzu CTD-30A column oven. The solvent delivery was performed with two Shimadzu LC-30AD parallel pumps with 0.6 and 0.15 mL/min total flow rates for RPLC and HILIC separation, respectively. The mobile phases consisted of eluent A (98% H2O, 2% ACN, and 0.1% FA) and eluent B (98% ACN, 2% H2O, and 0.1% FA). The setup was optimized and validated in RPLC mode using the following gradient: a linear increase from 0 to 30% B in 20 min followed by 5-min isocratic elution at 30% B and a subsequent decrease to 0% B in 1 min with a 5-min equilibration time. The snake venoms screening for ACE activity was performed both in RPLC and HILIC mode. In the RPLC mode, venoms were analyzed using a 20-min linear gradient from 0 to 50% B followed by a linear increase to 90% B in 2 min and then a 2-min isocratic elution at 90% B before going back to 0% B in 1 min. The column was then equilibrated for 5 min. In the HILIC mode, separation started at 50% B and decreased linearly to 0% B in 20 min. This was followed by 4-min column washing at 0% B and a subsequent increase to 50% B in 1 min. The column was then equilibrated for 10 min. After the column, a flow split was introduced in a 1:9 ratio. The larger flow portion was directed to a Gilson 235P autosampler for 6-s nanofractionation onto black 384-well plates (Greiner Bio One, Alphen aan den Rijn, The Netherlands). The nanofractionated plates were subsequently dried in a Christ Rotational Vacuum Concentrator (Salm en Kipp, Breukelen, The Netherlands) RVC 2−33 CD plus and then stored at −20 °C until use. Ariadne, an in-house written software, was used to control the nanofractionation. The smaller flow portion was directed towards a Shimadzu SPD-M20A prominence diode array detector followed by a Waters Ultima quadrupole–time-of-flight (q–TOF) mass spectrometer equipped with an electrospray ionization (ESI) source. […]
Assay [3] has the same target. The note with it: Fig. S1; for Vmax: normalized response.
Procedure: as §1
In the presence of an ACE inhibitor, a drop in the basal fluorescence is detected.
This was done by performing enzyme kinetic experiments using different substrate and enzyme concentrations. In total, five different enzyme concentrations (2.5, 5, 10, 20, and 40 mU) were tested in the ACE bioactivity assay, at eight substrate concentrations (5–500 μM), in a matrix fashion. […] Therefore, the results excluding the highest concentration tested (500 μM) were fitted into a Michaelis-Menten enzyme kinetic model. […] The data presented was normalized for comparison reasons (ESM Fig. S1). […] However, when using sufficiently long incubation times, low enzyme concentrations will yield a sufficient assay window for obtaining good S/N, also in combination with much lower than the Km substrate concentrations. In practice, these assay conditions allowed for two measurement points at 1 and 2 h after the beginning of the incubation resulting in repeatable slope determination of the enzymatic product formation.

Read-outs that look alike come from different tables or passages of the source. Where a SMILES comes first, the peptide text is derived from it. Where no end group is shown, it is not given here. [ ]: non-standard residue; d: D form. Phe(4-NO2) = N[C@@H](Cc1ccc([N+](=O)[O-])cc1)C(=O)O; pGlu = O=C1CC[C@@H](C(=O)O)N1; 2Abz = Nc1ccccc1C(=O)O

In assay [1], `CC(C)C[C@H](NC(=O)[C@@H]1CCC(=O)N1)C(=O)N[C@@H](Cc1c[nH]c2ccccc12)C(=O)N1CCC[C@H]1C(=O)N[C@@H](CCCNC(=N)N)C(=O)N1CCC[C@H]1C(=O)N[C@@H](Cc1c[nH]cn1)C(=O)N[C@H](C(=O)N1CCC[C@H]1C(=O)N1CCC[C@H]1C(=O)O)C(C)C` ([pGlu]LWPRPHVPP-OH) had an IC50 of 1.09 µM.
On the same count and under the same terms, as for `CC[C@H](C)[C@H](NC(=O)[C@@H]1CCCN1C(=O)[C@@H]1CCCN1C(=O)[C@H](CCCNC(=N)N)NC(=O)[C@@H]1CCCN1C(=O)[C@@H]1CCCN1C(=O)[C@H](Cc1c[nH]c2ccccc12)NC(=O)[C@@H]1CCCN1C(=O)[C@@H]1CCCN1C(=O)[C@H](Cc1c[nH]c2ccccc12)NC(=O)[C@@H]1CCC(=O)N1)C(=O)N1CCC[C@H]1C(=O)N1CCC[C@H]1C(=O)O` ([pGlu]WPPWPPRPPIPP-OH; C-terminus assumed), the figure is 3.47 µM.
As to pEQWPPGHH(I/L)PP, the “ACE inhibitory peptide assigned to bioactivity peak (in words)” value (from here on “ACE inhibitory peptide assigned”) is given as “ACE inhibitory peptides” in assay [2] and “major bioactive compounds” in assay [2] (listed as peptide with m/z 1276).
As to `CC(C)C[C@H](NC(=O)[C@@H]1CCCN1C(=O)[C@@H]1CCCN1C(=O)[C@H](CCCNC(=N)N)NC(=O)[C@@H]1CCCN1C(=O)[C@@H]1CCCN1C(=O)[C@H](Cc1c[nH]c2ccccc12)NC(=O)[C@@H]1CCCN1C(=O)[C@@H]1CCCN1C(=O)[C@H](Cc1c[nH]c2ccccc12)NC(=O)[C@@H]1CCC(=O)N1)C(=O)N1CCC[C@H]1C(=O)N1CCC[C@H]1C(=O)O` ([pGlu]WPPWPPRPPLPP-OH), in assay [1], inhibition was half-maximal at 3.37 µM (IC50).
Still for that read-out and setting: with `CC[C@H](C)[C@H](NC(=O)[C@@H]1CCC(=O)N1)C(=O)N[C@@H](Cc1c[nH]c2ccccc12)C(=O)N1CCC[C@H]1C(=O)N[C@@H](CCCNC(=N)N)C(=O)N1CCC[C@H]1C(=O)N[C@@H](Cc1c[nH]cn1)C(=O)N[C@H](C(=O)N1CCC[C@H]1C(=O)N1CCC[C@H]1C(=O)O)C(C)C` ([pGlu]IWPRPHVPP-OH) the figure was 1.01 µM.
With pE(I/L)WPRPHVPP, in assay [2], the “ACE inhibitory peptide assigned” value is listed as “major bioactive compounds”.
In the case of `Nc1ccccc1C(=O)NCC(=O)N[C@@H](Cc1ccc([N+](=O)[O-])cc1)C(=O)N1CCC[C@H]1C(=O)O` [M1100, o-Aminobenzoylglycyl-p-nitro-L-phenylalanyl-L-proline] (H-[2Abz]G[Phe(4-NO2)]P-OH), the Km in assay [3] (2.5 mU ACE) came to 46.8 µM; in assay [3] (5 mU ACE), 79.4 µM; in assay [3] (10 mU ACE), 56.3 µM; in assay [3] (20 mU ACE), 65.9 µM; in assay [3] (40 mU ACE), 65.4 µM. Further, the Vmax amounted to 120.0 in assay [3] (2.5 mU ACE); 129.3 in assay [3] (5 mU ACE); 122.9 in assay [3] (10 mU ACE); 126.5 in assay [3] (20 mU ACE); 126.6 in assay [3] (40 mU ACE).
With pEWPPWPPRPP(I/L)PP, in assay [2], the “ACE inhibitory peptide assigned” value is reported as “bioactive peptide”.
Same read-out and setting: with [pGlu]NWPRPKVPP the entry was “ACE inhibitory peptides”.
